The source of these data is BindingDB's records for doi:10.1016/j.bioorg.2016.08.009 (China Pharmaceutical University, 2016).

The test deals with T1, Bromodomain-containing protein 4 [44-168] (Human, UniProt O60885).
T1 construct: 44-168
Nature of the test: BRD4-BD1 Binding Assay. The conditions noted are these: 25 °C. The protocol:
11 compounds were evaluated against BRD4-BD1 in vitro with compound 28a as the reference compound. BRD4 (44-168 aa) was bought from Active Motif. After preparing 1× assay buffer (modified HEPES Buffer), target compounds were transferred to assay plate by Echo, and the final concentration of DMSO solution was 0.1%. Then the preparation of protein solution and substrate solution in 1× assay buffer was performed. After that, 5 µL of protein solution was transferred to assay plate and incubated at room temperature for 15 min. The protein concentration was 5 nM. Then 5 µL of substrate solution was added to each well to start reaction with an incubation period for 60 min at room temperature. Finally, 15 µL acceptor and donor solution were added, followed by another incubation period for 60 min at room temperature under subdued light.
`CC[C@@H]1C(=O)Nc2ccc(-c3c(C)noc3C)cc2N1Cc1ccccc1` [(R)-4-benzyl-6-(3,5-dimethylisoxazol-4-yl)-3-ethyl-3,4-dihydroquinoxalin-2(1H)-one (5i)] registered an IC50 of 73 nM.
To `COc1ccc(CN2c3cc(-c4c(C)noc4C)ccc3NC(=O)C2C)cc1` [2(R)-6-(3,5-dimethylisoxazol-4-yl)-4-(4-methoxybenzyl)-3-methyl-3,4-dihydroquinoxalin-2(1H)-one (5b)] belongs 160 nM.
To `Cc1noc(C)c1-c1ccc2c(c1)N(Cc1ccccc1)[C@H](Cc1ccccc1)C(=O)N2` [(R)-3,4-dibenzyl-6-(3,5-dimethylisoxazol-4-yl)-3,4-dihydroquinoxalin-2(1H)-one (5j)] belongs 151 nM.
To `Cc1noc(C)c1-c1ccc2c(c1)N(Cc1ccccc1)C(CO)C(=O)N2` [8(R)-4-benzyl-6-(3,5-dimethylisoxazol-4-yl)-3-(hydroxymethyl)-3,4-dihydroquinoxalin-2(1H)-one (5h)] belongs 650 nM; to `COc1ccc(CN2c3cc(-c4c(C)noc4C)ccc3N(C)C(=O)[C@H]2C)cc1` [(R)-6-(3,5-dimethylisoxazol-4-yl)-4-(4-methoxybenzyl)-1,3-dimethyl-3,4-dihydroquinoxalin-2(1H)-one (8)], 220 nM.
`Cc1noc(C)c1-c1ccc2c(c1)N(Cc1ccc(Cl)cc1)CC(=O)N2` [4-(4-Chlorobenzyl)-6-(3,5-dimethylisoxazol-4-yl)-3,4-dihydroquinoxalin-2(1H)-one (5k)] returned an IC50 of 500 nM.
To `Cc1noc(C)c1-c1ccc2c(c1)N(C1CCCC1)[C@H](C)C(=O)N2` [4(R)-4-cyclopentyl-6-(3,5-dimethylisoxazol-4-yl)-3-methyl-3,4-dihydroquinoxalin 2(1H)-one (5] belongs 370 nM.

As usually defined, the IC50 is the concentration that gives 50% inhibition. A lower IC50 goes with inhibition by little substance.
